Results taken from US12006330B2, “Substituted macrocyclic compounds and related methods of treatment” (Alkermes, Inc., priority 2020, dated 2024).

What follows are compounds tested against T1, human orexin-2 receptor (OX2R) (Homo sapiens, UniProt O43614) (assay: Human OX2R IP1 assay). Conditions: T-Rex CHO cells stably overexpressing human OX2R; IP1 accumulation; 1 hr at 37 degrees C; mean EC50.
T1 construct: expressed in transfected cells
T1 sequence (O43614 1-444): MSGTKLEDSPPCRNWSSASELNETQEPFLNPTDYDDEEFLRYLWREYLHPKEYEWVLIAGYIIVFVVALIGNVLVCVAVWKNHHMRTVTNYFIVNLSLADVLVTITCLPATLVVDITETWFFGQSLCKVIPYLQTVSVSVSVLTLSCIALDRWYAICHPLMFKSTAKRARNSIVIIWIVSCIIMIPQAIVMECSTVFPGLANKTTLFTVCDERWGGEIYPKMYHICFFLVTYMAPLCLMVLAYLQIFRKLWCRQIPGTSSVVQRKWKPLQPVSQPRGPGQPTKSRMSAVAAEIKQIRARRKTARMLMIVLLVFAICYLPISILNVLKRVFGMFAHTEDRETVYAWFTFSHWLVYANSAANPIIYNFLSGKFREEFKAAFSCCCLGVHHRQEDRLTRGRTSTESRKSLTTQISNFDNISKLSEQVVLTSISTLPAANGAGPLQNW
Format: cell-based
Method: T-Rex CHO cells stably overexpressing the human orexin-2 receptor (OX2R) were induced overnight with 1 μg/mL of doxycycline in a T225 flask. 24 hours post induction, cells were lifted with accutase and plated into a 384-well proxy plate at 30,000 cells/well. Cells were then treated with different test compounds in 1× stimulation buffer containing 10 mM Hepes, 1 mM CaCl2), 0.5 mM MgCl2, 4.2 mM KCl, 146 mM NaCl, 5.5 mM glucose, and 50 mM LiCl, pH 7.4, for 1 hr at 37 degrees C. Following incubation, the reaction was terminated by the addition of detection mix, which is composed of IP1-d2 and anti-IP1-cryptate diluted in lysis buffer as well as 1× stimulation buffer. The plates were allowed to incubate for 1 hour at room temperature and were then read in the EnVision® multimode plate reader, measuring inositol phosphate levels.
Cisbio IP1 is a cell-based functional assay quantifying the accumulation of inositol monophosphate (IP), a metabolite released as a result of orexin 2 receptor activation through the phospholipase C-Gq signaling pathway. This is a competitive immunoassay in which the IP1 produced by the cells upon receptor activation competes with the IP1 analog coupled to the d2 fluorophore (acceptor) for binding to an anti-IP1 monoclonal antibody labeled with Eu cryptate (donor). The measured HTRF-FRET based signal is inversely proportional to the IP1 concentration produced.
The EC50 values reported in Table 2 were obtained according to the human OX2R IP1 assay described above. Data are the mean EC50 values S.E.M. Reference Compound A is methyl (2R,3S)-3-((methylsulfonyl)amino)-2-(((cis-4-phenylcyclohexyl)oxy)methyl)-piperidine-1-carboxylate (Example 5 of PCT publication No. WO2017/135306). Reference Compound B is N-((2S,3S)-1-(2-hydroxy-2-methylpropanoyl)-2-((2,3′,5′-trifluorobiphenyl-3-yl)methyl)pyrrolidin-3-yl)methanesulfonamide (Example 483 of PCT publication No. WO2019/027058).

| SMILES | EC50 [nM] |
| --- | --- |
| Cc1ncnc2c1[C@H]1CC[C@H](CC1)OC[C@H]1[C@@H](NS(=O)(=O)C3CC3)CCCN1C(=O)CO2 (stereo in doubt) [Compound 68] | < 10 |
| O=C1COc2cccc(F)c2[C@H]2CC[C@H](CC2)OC[C@H]2[C@@H](NS(=O)(=O)C3CC3)CCCN12 (stereo in doubt) [Compound 74] | < 10 |
| O=C1COc2ccccc2[C@H]2CC[C@H](CC2)OC[C@H]2[C@@H](NS(=O)(=O)CCO)CCCN12 (stereo in doubt) [Compound 19] | < 10 |
| O=C1COc2ccccc2[C@H]2CC[C@H](CC2)OC[C@H]2[C@@H](NS(=O)(=O)C3COC3)CCN12 (stereo in doubt) [Compound 110] | < 10 |
| Cc1cccc2c1[C@H]1CC[C@H](CC1)OC[C@H]1[C@@H](NS(=O)(=O)C3CC3)CCN1C(=O)CO2 (stereo in doubt) [Compound 70] | < 10 |
| Cc1ccnc2c1[C@H]1CC[C@H](CC1)OC[C@H]1[C@@H](NS(=O)(=O)C3CC3)CCCN1C(=O)CO2 (stereo in doubt) [Compound 62] | < 10 |
| CC(C)S(=O)(=O)N[C@H]1CCCN2C(=O)COc3ncc(Cl)cc3[C@H]3CC[C@H](CC3)OC[C@@H]12 (stereo in doubt) [Compound 35] | < 10 |
| O=C1COc2ncccc2[C@H]2CC[C@H](CC2)OC[C@H]2[C@@H](NS(=O)(=O)C3CC3)CCN12 (stereo in doubt) [Compound 107] | < 10 |
| CS(=O)(=O)N[C@H]1CCCN2C(=O)COc3ccc(O)cc3[C@H]3CC[C@H](CC3)OC[C@@H]12 (stereo in doubt) [Compound 96] | < 10 |
| Cc1ccnc2c1[C@H]1CC[C@H](CC1)OC[C@H]1[C@@H](NS(C)(=O)=O)CCCN1C(=O)CO2 (stereo in doubt) [Compound 12] | < 10 |
| O=C1COc2nccnc2[C@H]2CC[C@H](CC2)OC[C@H]2[C@@H](NS(=O)(=O)C3CC3)CCCN12 (stereo in doubt) [Compound 65] | < 10 |
| CS(=O)(=O)N[C@H]1CCCN2C(=O)COc3cc(C#N)ccc3[C@H]3CC[C@H](CC3)OC[C@@H]12 (stereo in doubt) [Compound 47] | 10 to 1000 |
| O=C1COc2ccccc2[C@H]2CC[C@H](CC2)OC[C@H]2[C@@H](NS(=O)(=O)C3COC3)CCCN12 (stereo in doubt) [Compound 80] | < 10 |
| O=C1COc2ccccc2[C@H]2CC[C@H](CC2)OC[C@H]2[C@@H](NS(=O)(=O)C3CCCC3)CCCN12 (stereo in doubt) [Compound 33] | < 10 |
| Cc1c(Cl)ccc2c1[C@H]1CC[C@H](CC1)OC[C@H]1[C@@H](NS(=O)(=O)C3CC3)CCCN1C(=O)CO2 (stereo in doubt) [Compound 75] | < 10 |
| CC(C)S(=O)(=O)N[C@H]1CCN2C(=O)COc3ccccc3[C@H]3CC[C@H](CC3)OC[C@@H]12 (stereo in doubt) [Compound 106] | < 10 |

| SMILES | EC50 [nM] |
| --- | --- |
| Cc1ccc2c(c1C)[C@H]1CC[C@H](CC1)OC[C@H]1[C@@H](NS(=O)(=O)C(C)C)CCCN1C(=O)CO2 (stereo in doubt) [Compound 76] | < 10 |
| Cc1ccc2c(c1C)[C@H]1CC[C@H](CC1)OC[C@H]1[C@@H](NS(=O)(=O)C3CC3)CCCN1C(=O)CO2 (stereo in doubt) [Compound 77] | < 10 |
| Cc1c(Cl)ccc2c1[C@H]1CC[C@H](CC1)OC[C@H]1[C@@H](NS(C)(=O)=O)CCCN1C(=O)CO2 (stereo in doubt) [Compound 31] | < 10 |
| Cc1ccnc2c1[C@H]1CC[C@H](CC1)OC[C@H]1[C@@H](NS(=O)(=O)C3COC3)CCCN1C(=O)CO2 (stereo in doubt) [Compound 88] | < 10 |
| Cc1cccc2c1OCCN1CCC[C@H](NS(C)(=O)=O)[C@@H]1CO[C@H]1CC[C@@H]2CC1 (stereo in doubt) [Compound 49] | > 1000 |
| O=C1COc2ncccc2[C@H]2CC[C@H](CC2)OCC2[C@@H](NS(=O)(=O)C(F)(F)F)CCN12 (stereo in doubt) [Compound 108] | < 10 |
| CC(C)S(=O)(=O)N[C@H]1CCN2C(=O)COc3ncccc3[C@H]3CC[C@H](CC3)OC[C@@H]12 (stereo in doubt) [Compound 101] | < 10 |
| Cc1cccc2c1[C@H]1CC[C@H](CC1)OC[C@H]1[C@@H](NS(=O)(=O)C(C)C)CCCN1C(=O)CO2 (stereo in doubt) [Compound 9] | < 10 |
| Cc1ccnc2c1[C@H]1CC[C@H](CC1)OC[C@H]1[C@@H](NS(=O)(=O)C(C)C)CCCN1C(=O)CO2 (stereo in doubt) [Compound 10] | < 10 |
| O=S(=O)(CC1CCC1)N[C@H]1CCCN2CCOc3ccccc3[C@H]3CC[C@H](CC3)OC[C@@H]12 (stereo in doubt) [Compound 55] | > 1000 |
| Cc1ccc2c(c1)[C@H]1CC[C@H](CC1)OC[C@H]1[C@@H](NS(=O)(=O)C3CC3)CCCN1C(=O)CO2 (stereo in doubt) [Compound 13] | < 10 |
| CC(C)S(=O)(=O)N[C@H]1CCCN2C(=O)COc3ncccc3[C@H]3CC[C@H](CC3)OC[C@@H]12 (stereo in doubt) [Compound 15] | < 10 |
| O=C1COc2ccccc2[C@H]2CC[C@H](CC2)OC[C@H]2[C@@H](NS(=O)(=O)C(F)F)CCCN12 (stereo in doubt) [Compound 7] | < 10 |
| O=C1COc2nnccc2[C@H]2CC[C@H](CC2)OC[C@H]2[C@@H](NS(=O)(=O)C3CC3)CCCN12 (stereo in doubt) [Compound 67] | 10 to 1000 |
| Cc1cccc2c1[C@H]1CC[C@H](CC1)OC[C@H]1[C@@H](NS(C)(=O)=O)CCCN1C(=O)CO2 (stereo in doubt) [Compound 2] | < 10 |
